Assay results published in article PMC7138916 (Pharmacology Research & Perspectives, 2020).

Key:
human P-gp (MDR1) = human P-gp (MDR1) (Homo sapiens, UniProt P08183); experiment: Bidirectional permeability and efflux ratio in MDR1‐MDCK cells; format: in vitro ADME; settings: human; for Papp A→B at 2 h, 1 μmol/L / Papp B→A at 2 h, 1 μmol/L: MDCK-MDR1; for efflux ratio at 2 h, 1 μmol/L: MDCK-MDR1, Efflux ratio, MDR1‐MDCK cell line, P app(B–A)/P app(A–B)
[1] = system: efflux transporters (eg, P‐gp, BCRP, MRPs); experiment: Classification as efflux transporter substrate; settings: for Efflux transporter substrate: Yes/No; for Class (based on membrane permeability and ER value): parental MDCK, MDR1‐MDCK, and Caco‐2 cell lines
[2] = Rat microdialysis at additional two brain positions; format: in vivo; settings: steady state, n = 3, mean ± SD
[3] = Rat pharmacokinetic study, IV single bolus; settings: for Vd / clearance / half-life: male, Sprague-Dawley, in vivo, iv
[4] = Bidirectional permeability and efflux ratio in Caco‐2 cells; format: in vitro ADME, human; settings: human; for Papp A→B at 2 h, 5 μmol/L / Papp B→A at 2 h, 5 μmol/L: Caco-2; for efflux ratio at 2 h, 5 μmol/L: Caco-2, Efflux ratio, Caco‐2 cell line, P app(B–A)/P app(A–B)
human P‐gp (MDR1‐MDCK) = human P‐gp (MDR1‐MDCK) (Homo sapiens, UniProt P08183); experiment: Bidirectional permeability and efflux ratio in MDR1‐MDCK cells; format: in vitro ADME; settings: MDR1‐MDCK cell line; for Efflux ratio: P app(B–A)/P app(A–B)
[5] = Rat brain and blood microdialysis at steady state; settings: for concentration at 6 h: male, Sprague-Dawley, in vivo, iv, C m,brain
[6] = Bidirectional permeability in parental MDCK cells; format: in vitro ADME, Canine; settings: dog, MDCK
Caco‐2 cell line = experiment: Bidirectional permeability and efflux ratio in Caco‐2 cells; format: in vitro ADME, human; settings: for Efflux ratio: P app(B–A)/P app(A–B)
MDCK cell line = experiment: Bidirectional permeability in parental MDCK cells; format: in vitro ADME, Canine; settings: MDCK cell line, 1 μmol/L, 2 hours, 10 uM Cyclosporin A, n = 4
[7] = cited from earlier work
P‐gp = settings: cited from earlier work
MDCK‐MDR1‐NKI cell lines = settings: cited from earlier work
[8] = rat; ref 20 (Summerfield et al); cited from earlier work
[9] = rat, steady‐state unbound concentration in brain (right striatum), microdialysis, IV infusion, mean ± SD
[10] = IV single bolus, n = 3, mean ± SD
[11] = Caco‐2 cell line, 5 μmol/L, 2 hours, n = 4

Chain of human P‐gp (MDR1‐MDCK) (P08183 whole entry): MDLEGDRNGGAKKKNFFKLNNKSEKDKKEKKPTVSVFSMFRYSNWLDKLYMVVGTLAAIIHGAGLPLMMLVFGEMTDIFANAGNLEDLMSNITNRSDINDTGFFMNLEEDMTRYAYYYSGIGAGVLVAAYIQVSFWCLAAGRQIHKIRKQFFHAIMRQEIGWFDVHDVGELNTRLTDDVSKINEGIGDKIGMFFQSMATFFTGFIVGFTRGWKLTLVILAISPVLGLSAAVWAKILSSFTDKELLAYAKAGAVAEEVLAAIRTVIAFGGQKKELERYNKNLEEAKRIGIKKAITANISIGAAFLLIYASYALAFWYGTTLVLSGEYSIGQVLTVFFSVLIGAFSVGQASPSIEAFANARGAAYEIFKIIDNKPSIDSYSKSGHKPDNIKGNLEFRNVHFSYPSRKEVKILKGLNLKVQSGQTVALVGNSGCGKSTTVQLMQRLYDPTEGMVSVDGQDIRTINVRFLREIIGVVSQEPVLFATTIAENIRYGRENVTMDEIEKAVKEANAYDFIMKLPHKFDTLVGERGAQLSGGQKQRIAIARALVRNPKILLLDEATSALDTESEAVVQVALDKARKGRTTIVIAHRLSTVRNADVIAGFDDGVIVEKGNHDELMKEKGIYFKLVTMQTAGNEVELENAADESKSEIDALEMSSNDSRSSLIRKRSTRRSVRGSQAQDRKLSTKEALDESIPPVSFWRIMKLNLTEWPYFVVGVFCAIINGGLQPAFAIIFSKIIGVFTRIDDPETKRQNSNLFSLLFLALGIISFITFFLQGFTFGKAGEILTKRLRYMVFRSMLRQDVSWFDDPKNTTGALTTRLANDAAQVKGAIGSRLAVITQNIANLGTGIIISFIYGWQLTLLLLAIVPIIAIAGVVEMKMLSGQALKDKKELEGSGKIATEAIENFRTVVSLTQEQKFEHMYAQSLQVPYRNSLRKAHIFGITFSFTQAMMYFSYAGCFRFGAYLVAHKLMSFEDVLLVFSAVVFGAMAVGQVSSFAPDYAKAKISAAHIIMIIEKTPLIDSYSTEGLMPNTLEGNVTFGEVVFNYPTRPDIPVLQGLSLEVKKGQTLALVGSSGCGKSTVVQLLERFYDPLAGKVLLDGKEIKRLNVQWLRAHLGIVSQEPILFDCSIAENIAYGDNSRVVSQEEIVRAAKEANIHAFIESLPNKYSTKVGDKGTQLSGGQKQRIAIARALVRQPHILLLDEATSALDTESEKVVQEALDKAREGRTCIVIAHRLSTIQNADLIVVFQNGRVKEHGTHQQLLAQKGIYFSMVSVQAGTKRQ
Chain of human P-gp (MDR1) (P08183 whole entry): as above

SMILES | Papp A→B at 2 h, 1 μmol/L (human P-gp (MDR1)) [×10⁻⁶ cm/s] | Papp B→A at 2 h, 1 μmol/L (human P-gp (MDR1)) [×10⁻⁶ cm/s] | Efflux transporter substrate [1] | Class (based on membrane permeability and ER value) [1] | Vd [3] [L/kg] | clearance [3] [mL/min/kg] | half-life [3] [h] | Papp A→B at 2 h, 5 μmol/L [4] [×10⁻⁶ cm/s] | Papp B→A at 2 h, 5 μmol/L [4] [×10⁻⁶ cm/s] | Efflux ratio (human P‐gp (MDR1‐MDCK)) | concentration at 6 h [5, 9] [nM] | Papp A→B at 2 h, 1 μmol/L [6] [×10⁻⁶ cm/s] | Papp at 2 h, 1 μmol/L [6] [×10⁻⁶ cm/s] | Efflux ratio (Caco‐2 cell line; Caco‐2 cell line) | Papp B→A at 2 h, 1 μmol/L [6] [×10⁻⁶ cm/s] | other results
Cc1cc(=O)n(-c2ccccc2)n1C [Antipyrine] | 38.2 ± 2.1 | 25.8 ± 1.9 | No | Class I | 0.724 ± 0.051 | 4.81 ± 0.77 | 1.99 ± 0.43 | 36.2 ± 1.2 | 25.1 ± 0.6 |  |  |  |  |  |  | C m,brain ([2]; Frontal cortex): 3.66 ± 1.19 µmol/L; C m,brain ([2]; Hypothalamus): 3.81 ± 0.25 µmol/L
NC(=O)N1c2ccccc2C=Cc2ccccc21 [Carbamazepine, carbamazepine] | 34.3 ± 1.2 | 22.8 ± 0.5 | No | Class I | 0.745 ± 0.081 | 18.1 ± 2.9 | 0.993 ± 0.115 | 33.1 ± 2.3 | 22 ± 1 | 0.665 | 1370 ± 170 | 34.2 ± 2.6 | 27.5 ± 7.5 | 0.662 |  | Efflux ratio (human P‐gp (MDR1‐MDCK); listed as carbamazepine): less than 2.0; C csf higher than C m,brain by ([5]; rat, steady state): 25%; Efflux ratio (Caco‐2 cell line; Caco‐2 cell line, listed as carbamazepine): less than 2.0
CC(C)NCC(O)COc1cccc2ccccc12 (stereo not drawn) [Propranolol, propranolol] | 18.9 ± 2.6 | 16.8 ± 0.5 | No | Class I | 4.64 ± 0.7 | 82.8 ± 12.5 | 0.943 ± 0.062 | 21.2 ± 3.6 | 13.8 ± 0.5 |  | 1490 ± 240 | 13.7 ± 5.3 | 11 ± 5.2 | 0.654 | 8.37 ± 3.8 | Average P app (MDCK cell line): about 11.0 10^−6 cm/s; reported mean values of rat plasma CL [7]: 68 mL/min/kg; Efflux ratio (Caco‐2 cell line; Caco‐2 cell line, listed as propranolol): less than 2.0
Cc1c(O)cccc1C(=O)N[C@@H](CSc1ccccc1)[C@H](O)CN1C[C@H]2CCCC[C@H]2C[C@H]1C(=O)NC(C)(C)C [neflinivir] |  |  |  |  |  |  |  |  |  |  |  |  |  |  |  | permeability (P‐gp): 197 ×10⁻⁶ cm/s
CC1COc2c(N3CCN(C)CC3)c(F)cc3c(=O)c(C(=O)O)cn1c23 (stereo not drawn) [Ofloxacin, ofloxacin] |  |  |  |  | 5.08 ± 2.99 | 32.5 ± 4.9 | 6.32 ± 3.34 |  |  |  | 678 ± 293 |  |  |  |  | 
C=C[C@H]1C[N@@]2CC[C@H]1C[C@@H]2[C@@H](O)c1ccnc2ccc(OC)cc12 [Quinidine, quinidine] |  |  |  |  |  |  |  |  |  |  | 552 ± 126 |  |  |  |  | permeability (MDCK‐MDR1‐NKI cell lines): about 60 × 10^−6 cm/sec
CN/C(=N/CCSCc1nc[nH]c1C)NC#N [Cimetidine] | 1.91 ± 0.93 | 3.22 ± 0.389 | Yes | Class II | 3.3 ± 1.93 | 53.7 ± 4.8 | 5.91 ± 4.71 | 0.706 ± 0.204 | 6.49 ± 1.37 | 1.68 | 1420 ± 370 | 0.963 ± 0.26 | 1.67 ± 0.78 | 9.20 | 2.37 ± 0.16 | efflux ratio at 2 h, 1 μmol/L (human P-gp (MDR1)): < 2; Efflux ratio (Caco‐2 cell line; Caco‐2 cell line, listed as cimetidine): greater than 2.0; ER after treatment with novobiocin (Caco‐2 cell line; Caco‐2 cells treated with novobiocin (BCRP inhibitor), supplemental data): 3.29
CC(=O)Nc1ccc(O)cc1 [Acetaminophen] | 18.5 ± 4.6 | 14.3 ± 0.9 |  |  | 2.87 ± 1.44 |  | 4.96 ± 2.31 | 19.6 ± 2.1 | 19.6 ± 1.9 |  | 3450 ± 820 | 16.7 ± 0.6 | 15.5 ± 1.5 |  | 14.2 ± 0.9 | C m,brain ([2]; Frontal cortex): 4.79 ± 0.34 µmol/L; C m,brain ([2]; Hypothalamus): 4.62 ± 0.82 µmol/L
COc1ccc([C@@H]2Sc3ccccc3N(CCN(C)C)C(=O)[C@@H]2OC(C)=O)cc1 [Diltiazem, diltiazem] | 12.5 ± 3.1 | 18.7 ± 1.9 | No | Class I | 2.85 ± 0.3 | 97.7 ± 18.8 | 0.823 ± 0.325 | 21.7 ± 2.3 | 20.1 ± 2.3 | 1.49 |  | 23.2 ± 2.6 | 18.4 ± 5.5 | 0.926 | 13.6 ± 1.3 | efflux ratio at 2 h, 1 μmol/L (human P-gp (MDR1)): < 2; reported mean values of rat plasma CL [7]: 90.3 mL/min/kg; Efflux ratio (Caco‐2 cell line; Caco‐2 cell line, listed as diltiazem): less than 2.0
Nc1nc2[nH]cc(CCc3ccc(C(=O)N[C@@H](CCC(=O)O)C(=O)O)cc3)c2c(=O)[nH]1 [Pemetrexed, pemetrexed] | 0.709 ± 0.236 | 0.442 ± 0.252 | Yes (?) | Class II | 0.637 ± 0.272 | 14 ± 1.8 | 4.97 ± 1.15 | 0.392 ± 0.207 | 0.707 ± 0.443 | 0.623 | 31.3 ± 19.3 | 0.452 ± 0.092 | 0.623 ± 0.215 | 1.81 | 0.793 ± 0.148 | Efflux ratio (human P‐gp (MDR1‐MDCK); listed as pemetrexed): less than 2.0; difference in steady‐state unbound drug concentrations between the brain and blood ([5]; brain lower than blood, rat microdialysis): 86 fold; Average P app (MDCK cell line): 0.623 10^−6 cm/s; efflux ratio at 2 h, 5 μmol/L [4]: < 2
Cc1c(N)c(=O)n(-c2ccccc2)n1C [4‐Aminoantipyrine, 4‐aminoantipyrine] |  |  | No | Class I |  |  |  |  |  | 0.662 |  |  |  | 0.713 |  | P app(A–B) (human P‐gp (MDR1‐MDCK); 1 μmol/L, 2 hours, n = 4): 39.1 ± 3.4 10^−6 cm/s; P app(B–A) (human P‐gp (MDR1‐MDCK); 1 μmol/L, 2 hours, n = 4): 25.9 ± 1.7 10^−6 cm/s; Efflux ratio (human P‐gp (MDR1‐MDCK); listed as 4‐aminoantipyrine): less than 2.0; C csf ([5]; concentration in CSF at end of infusion (6 hours), rat, n = 3‐4, mean ± SD): 5.82 ± 0.49 µmol/L; C csf lower than C m,brain by ([5]; rat, steady state): about 25%; C m,blood ([5]; steady‐state unbound concentration in blood, microdialysis, rat, IV infusion, n = 3‐4, mean ± SD): 6.73 ± 0.32 µmol/L; C m,brain ([5]; steady‐state unbound concentration in brain (right striatum), microdialysis, rat, IV infusion, mean ± SD): 7.71 ± 0.67 µmol/L; T 1/2 [3, 10]: 0.883 ± 0.025 h; V ss [3, 10]: 0.772 ± 0.018 L/kg; CL ([3]; plasma, IV single bolus, n = 3, mean ± SD): 17.7 ± 0.8 mL/min/kg; P app(A–B) (Caco‐2 cell line; [11]): 36.1 ± 2.5 10^−6 cm/s; P app(B–A) (Caco‐2 cell line; [11]): 25.8 ± 1.5 10^−6 cm/s; Efflux ratio (Caco‐2 cell line; Caco‐2 cell line, listed as 4‐aminoantipyrine): less than 2.0
Nc1nc(O)c2ncn(COC(CO)CO)c2n1 [Ganciclovir, ganciclovir] |  |  |  |  | 0.852 ± 0.159 | 21.5 ± 1.4 | 1.35 ± 0.04 |  |  |  | 2230 ± 960 |  |  |  |  | 
Cn1c(=O)c2[nH]cnc2n(C)c1=O [Theophylline, theophylline] |  |  |  |  | 0.453 ± 0.048 | 1.58 ± 0.52 | 3.42 ± 1.02 |  |  |  | 4520 ± 2110 |  |  |  |  | reported mean values of rat plasma CL [7]: 2.39 mL/min/kg
CN(C)CCCC1(c2ccc(F)cc2)OCc2cc(C#N)ccc21 (stereo not drawn) [Citalopram, citalopram] | 13.8 ± 3.2 | 23.7 ± 0.7 | No | Class I | 6.45 ± 0.64 | 95.9 ± 11.2 | 1.02 ± 0.05 | 16 ± 1.8 | 17.4 ± 1.4 | 1.72 | 954 ± 91 | 19 ± 3.1 | 15 ± 5.1 | 1.09 | 10.9 ± 2.6 | efflux ratio at 2 h, 1 μmol/L (human P-gp (MDR1)): < 2; efflux ratio at 2 h, 5 μmol/L [4]: < 2
CNS(=O)(=O)Cc1ccc2[nH]cc(CCN(C)C)c2c1 [Sumatriptan, sumatriptan] | 0.683 ± 0.04 | 1.54 ± 0.59 | Yes | Class II | 3.11 ± 0.03 | 59.1 ± 5.8 | 0.98 ± 0.011 | 0.904 ± 0.283 | 1.91 ± 0.6 |  | 845 ± 439 | 1.07 ± 0.08 | 1.64 ± 0.66 |  | 2.21 ± 0.37 | efflux ratio at 2 h, 1 μmol/L (human P-gp (MDR1)): 2.25; steady‐state unbound concentration in brain lower than in plasma [8]: about 20 fold; efflux ratio at 2 h, 5 μmol/L [4]: 2.12
Nc1nnc(-c2cccc(Cl)c2Cl)c(N)n1 [Lamotrigine, lamotrigine] |  |  |  |  | 1.86 ± 0.18 | 1.48 ± 0.21 | 15.6 ± 3 |  |  |  | 757 ± 42 |  |  |  |  | C csf higher than C m,brain by ([5]; rat, steady state): 45%; reported mean values of rat plasma CL [7]: 0.83 mL/min/kg
